Source: PMC9005971, “Discovery of 2-(4-Acrylamidophenyl)-Quinoline-4-Carboxylic Acid Derivatives as Potent SIRT3 Inhibitors” (Frontiers in Chemistry, 2022)

Key:
SIRT1 = molecular target: T1, SIRT1 (Homo sapiens, UniProt Q96EB6); experiment: SIRT1 enzyme inhibitory assay (fluorescence); type: biochemical; conditions: for activity at 0.01 µM / activity at 0.033 µM / activity at 0.1 µM / activity at 0.333 µM / activity at 1 µM / activity at 3.3 µM / activity at 10 µM / activity at 33 µM / activity at 100 µM: SIRT1 enzyme activity; for activity at 0.01 µM: 10 nM; for activity at 0.033 µM: 33 nM; for activity at 0.1 µM: 100 nM; for activity at 0.333 µM: 333 nM
T1 sequence (Q96EB6 1-747): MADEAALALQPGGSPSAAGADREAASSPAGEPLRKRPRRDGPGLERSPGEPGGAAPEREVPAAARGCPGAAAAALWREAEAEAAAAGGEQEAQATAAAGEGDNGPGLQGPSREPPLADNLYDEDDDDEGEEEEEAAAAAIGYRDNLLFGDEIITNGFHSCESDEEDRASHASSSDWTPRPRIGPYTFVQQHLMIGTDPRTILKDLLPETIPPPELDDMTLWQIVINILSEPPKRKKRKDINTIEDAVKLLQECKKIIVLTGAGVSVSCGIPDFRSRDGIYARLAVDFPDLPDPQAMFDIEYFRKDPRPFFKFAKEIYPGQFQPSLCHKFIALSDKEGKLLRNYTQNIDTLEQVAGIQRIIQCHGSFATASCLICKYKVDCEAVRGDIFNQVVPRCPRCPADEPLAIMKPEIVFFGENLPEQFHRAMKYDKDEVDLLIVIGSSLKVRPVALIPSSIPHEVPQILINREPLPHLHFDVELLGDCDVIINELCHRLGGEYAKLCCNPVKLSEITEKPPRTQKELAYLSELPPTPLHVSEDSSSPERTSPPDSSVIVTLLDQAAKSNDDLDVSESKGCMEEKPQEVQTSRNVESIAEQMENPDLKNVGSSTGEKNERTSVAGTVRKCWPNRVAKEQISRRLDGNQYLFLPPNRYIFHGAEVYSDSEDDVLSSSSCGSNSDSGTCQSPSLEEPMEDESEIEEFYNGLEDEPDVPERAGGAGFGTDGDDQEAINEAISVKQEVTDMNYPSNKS
Protocol: All of the enzymatic reactions were conducted at 37°C for 30 min. […] The compounds were diluted in 10% DMSO and 5 ul of the dilution was added to each reaction mixture (50 ul). The assay was performed by quantitating the amount of fluorescent product generated from the enzyme reaction. Fluorescence intensity is then analyzed at excitation wavelength of 350–360 nm and emission wavelength of 450–460 nm on a SpectraMax M5 microtiter plate reader. The IC50 values were calculated using Prism GraphPad software.

THP-1 cells [1] = experiment: In vitro antiproliferative CCK-8 assay, THP-1; type: cell-based; conditions: Homo sapiens
Protocol: (§1) The proliferation of THP-1, MOLM-13, SEM and MV4-11 cells was tested by CCK-8 assay. Briefly, cells were seeded in 96-well plate with about 5 × 10^3 cells in each well. The cells were treated with P6 or Ara-C (0–10 µM) after 24 h of incubation. CCK-8 reagent ([…]) was added to each well after 72 h of incubation, and cells were incubated at 37°C for 4 h. The light absorbance at 450 nm was measured by using an Opsys microplate reader (Dynex Technologirs, Chantilly, VA, United States). Results are illustrated as percent of cell viability normalized to DMSO-treated control cells.

MOLM-13 cells = experiment: In vitro antiproliferative CCK-8 assay, MOLM-13; type: cell-based; conditions: Homo sapiens, 72 h, read-out: IC50 growth inhibition MOLM-13
Protocol: as §1

SEM cells = experiment: In vitro antiproliferative CCK-8 assay, SEM; type: cell-based; conditions: 72 h, read-out: IC50 growth inhibition SEM
Protocol: as §1

THP-1 cells [2] = experiment: Colony formation assay, THP-1; type: cell-based; conditions: 12 days
Protocol: (§2) THP-1, MOLM-13, SEM and MV4-11 cells were cultured with P6 (0–2.0 µM) in 2.6% methycellulose medium containing 10% FBS in a 24-well flat-bottomed plate for 12 days ([Qu et al., 2021]). The number of individual colonies consisting of more than approximately 50 cells was counted by a CX43 microscope (Olympus, Shinjuku-ku, Tokyo, Japan) with an Olympus EP50 camera (Olympus, Shinjuku-ku, Tokyo, Japan).

[3] = tested on: THP-1, MOLM-13, SEM and MV4-11 cells; experiment: Colony formation assay, MLLr leukemic cells; type: cell-based; conditions: 0.2–2.0 µM, 12 days
Protocol: as §2

[4] = tested on: THP-1, MOLM-13, SEM and MV4-11 cells; experiment: Cell cycle analysis, MLLr leukemic cells; type: cell-based; conditions: 0.9–2.0 µM
Protocol: THP-1, MOLM-13, SEM and MV4-11 cells were incubated with 1.0 (THP-1, MOLM-13 cells) and 2.0 (SEM and MV4-11 cells) µM of P6 for 72 h. After treatment, cells were collected and fixed with 70% pre-cold ethanol in PBS and stored at −20°C for at least 24 h. Then the cells were stained with […] RNase A for 30 min in the dark at room temperature. Finally, flow cytometry was used to detect the percentage of cells in the sub-G1, G0/G1, S, and G2/M phases with a Beckman Coulter DxFLEX flow cytometer (Florida, Miami, USA). The data was analyzed and fitted by ModFit software.

[5] = tested on: THP-1, MOLM-13, SEM and MV4-11 cells; experiment: Cell apoptosis analysis, MLLr leukemic cells; type: cell-based; conditions: 72 h, flow cytometry
Protocol: THP-1, MOLM-13, SEM and MV4-11 cells were treated with P6 (0.45–4 µM) or Ara-C (0.1–2.0 µM) for 72 h, collected and resuspended in 1× binding buffer. Cells were incubated with FITC Annexin V and PI double labeling for 30 min in the dark at room temperature and measured by flow cytometry.

- activity at 0.01 µM (SIRT1; Repeat1): 98%
- activity at 0.01 µM (SIRT1; Repeat2): 102%
- activity at 0.033 µM (SIRT1; Repeat1): 97%
- activity at 0.033 µM (SIRT1; Repeat2): 98%
- activity at 0.1 µM (SIRT1; Repeat1): 100%
- activity at 0.1 µM (SIRT1; Repeat2): 97%
- activity at 0.333 µM (SIRT1; Repeat1): 101%
- activity at 0.333 µM (SIRT1; Repeat2): 95%
- activity at 1 µM (SIRT1; Repeat1): 97%
- activity at 1 µM (SIRT1; Repeat2): 89%
- activity at 3.3 µM (SIRT1; Repeat1): 91%
- activity at 3.3 µM (SIRT1; Repeat2): 85%
- activity at 10 µM (SIRT1; Repeat1): 61%
- activity at 10 µM (SIRT1; Repeat2): 64%
- activity at 33 µM (SIRT1; Repeat1): 42%
- activity at 33 µM (SIRT1; Repeat2): 40%
- activity at 100 µM (SIRT1; Repeat1): 25%
- activity at 100 µM (SIRT1; Repeat2): 26%
- IC50 (SIRT1; mean of two experiments): 32600 ± 800 nM
- IC50 (THP-1 cells [1]; 72 h, CCK-8, read-out: IC50 growth inhibition THP-1): 870 nM
- IC50 (MOLM-13 cells): 980 nM
Compound: C=CC(=O)Nc1ccc(-c2cc(C(=O)N3CCN(c4ccccc4F)CC3)c3ccccc3n2)cc1 [Compound P6, N-(4-{4-[4-(2-Fluoro-phenyl)-piperazine-1-carbonyl]-quinolin-2-yl}-phenyl)-acrylamide]
- inhibition at 1 µM (THP-1 cells [1]; dose of 1 μM, mean of three experiments, read-out: THP-1 percentage inhibitory rate): 85.9 ± 3.42%
- IC50 (SEM cells): 1790 nM
- colony formation percentage (THP-1 cells [2]; THP-1, 0.2 µM): 93.2
- colony formation percentage (THP-1 cells [2]; THP-1, 0.4 µM): 13.4
- colony formation percentage (THP-1 cells [2]; THP-1, 0.8 µM): 4.1
- effect on number of colonies [3]: significantly reduce the number of colonies with a dose dependent manner
- effect on cell cycle progression [4]: capable of causing MLLr leukemic cell cycle arrest at G0/G1 phase
- induction of apoptosis [5]: no significant apoptosis
